Test results as given in ChEMBL document CHEMBL4196030, “Enediynes bearing polyfluoroaryl sulfoxide as new antiproliferative agents with dual targeting of microtubules and DNA” (Eur J Med Chem, 2018).
Values belong to the compound of their own block, whether it stands above or below them. Calls of active or inactive are those of the source. The calls are words filed in the database; no cut-off is given here.

What was measured:
BEAS-2B [1] = test: Antiproliferative activity against human BEAS2B cells after 70 hrs by alamar blue assay; format: cell-based
BEAS-2B [2] = test: Cytotoxicity against human BEAS2B cells assessed as reduction in cell viability after 70 hrs by alamar blue assay; format: cell-based
[3] = Ratio of IC50 for antiproliferative activity against human BEAS2B cells to IC50 for cytotoxicity against human BEAS2B cells; format: cell-based, BEAS-2B; details: read-out: Ratio IC50
HBL-100 [4] = test: Antiproliferative activity against human HBL100 cells after 70 hrs by alamar blue assay; format: cell-based; details: HBL-100, 70 h
HBL-100 [5] = test: Cytotoxicity against human HBL100 cells assessed as reduction in cell viability after 70 hrs by alamar blue assay; format: cell-based; details: HBL-100, 70 h
[6] = Ratio of IC50 for antiproliferative activity against human HBL100 cells to IC50 for cytotoxicity against human HBL100 cells; format: cell-based, HBL-100; details: read-out: Ratio IC50
HUVEC [7] = test: Antiproliferative activity against HUVEC after 70 hrs by alamar blue assay; format: cell-based; details: Homo sapiens
HUVEC [8] = test: Cytotoxicity against HUVEC assessed as reduction in cell viability after 70 hrs by alamar blue assay; format: cell-based; details: Homo sapiens
MIA PaCa-2 [9] = test: Cytotoxicity against human MIAPaCa2 cells assessed as reduction in cell viability after 70 hrs by alamar blue assay; format: cell-based; details: MIA PaCa-2, 70 h
[10] = Ratio of IC50 for antiproliferative activity against human MIAPaCa2 cells to IC50 for cytotoxicity against human MIAPaCa2 cells; set-up: species or system MIA PaCa-2
A498 [11] = test: Disruption of microtubule network in human A498 cells at 5 times antiproliferative IC50 after 1 to 12 hrs by immunofluorescence assay; format: cell-based
MIA PaCa-2 [12] = test: Antiproliferative activity against human MIAPaCa2 cells after 70 hrs by alamar blue assay; format: functional, cell-based; details: MIA PaCa-2, 70 h
MIA PaCa-2 [13] = test: Potency index, ratio of 5-fluorouracil IC50 to compound IC50 for antiproliferative activity against human MIAPaCa2 cells; format: functional
MDA-MB-231 [14] = test: Antiproliferative activity against human MDA-MB-231 cells after 70 hrs by alamar blue assay; format: functional, cell-based; details: MDA-MB-231, 70 h
K562 = test: Antiproliferative activity against human K562 cells after 70 hrs by alamar blue assay; format: functional, cell-based; details: K562, 70 h
MOLT-4 [15] = test: Antiproliferative activity against human MOLT4 cells after 70 hrs by alamar blue assay; format: functional, cell-based; details: MOLT-4, 70 h
A549 [16] = test: Antiproliferative activity against human A549 cells after 70 hrs by alamar blue assay; format: functional, cell-based; details: A549, 70 h
A498 [17] = test: Antiproliferative activity against human A498 cells after 70 hrs by alamar blue assay; format: functional, cell-based; details: A498, 70 h
Caco-2 [18] = test: Antiproliferative activity against human Caco2 cells after 70 hrs by alamar blue assay; format: functional, cell-based; details: Caco-2, 70 h
PC-3 [19] = test: Antiproliferative activity against human PC3 cells after 70 hrs by alamar blue assay; format: functional, cell-based; details: PC-3, 70 h
A-431 [20] = test: Antiproliferative activity against human A431 cells after 70 hrs by alamar blue assay; format: functional, cell-based; details: A-431, 70 h
[21] = Antiproliferative activity against human GERL3.0 cells after 70 hrs by alamar blue assay; format: functional, cell-based
[22] = Induction of supercoiled plasmid complementary DNA3 cleavage at 100 uM after 1 hr by gel electrophoresis method
A549 [23] = test: Disruption of microtubule network in human A549 cells at 5 times antiproliferative IC50 after 1 to 12 hrs by immunofluorescence assay; format: cell-based
Homo sapiens = organism: Homo sapiens; test: Disruption of microtubule network in human MIAPaCa2 cells at 5 times antiproliferative IC50 after 1 to 12 hrs by immunofluorescence assay; format: cell-based
[24] = Induction of supercoiled plasmid complementary DNA3 cleavage at 100 uM after 1 hr under LED light irradiation by gel electrophoresis method
MDA-MB-231 [25] = test: Antiproliferative activity against human MDA-MB-231 cells preincubated for 4 hrs followed by 0.6 J/cm2 light irradiation for 10 mins and measured after 70 hrs by alamar blue assay; format: functional, cell-based; details: MDA-MB-231, light or radiation study
MOLT-4 [26] = test: Antiproliferative activity against human MOLT4 cells preincubated for 4 hrs followed by 0.6 J/cm2 light irradiation for 10 mins and measured after 70 hrs by alamar blue assay; format: functional, cell-based; details: MOLT-4, light or radiation study
A549 [27] = test: Antiproliferative activity against human A549 cells preincubated for 4 hrs followed by 0.6 J/cm2 light irradiation for 10 mins and measured after 70 hrs by alamar blue assay; format: functional, cell-based; details: A549, light or radiation study
A498 [28] = test: Antiproliferative activity against human A498 cells preincubated for 4 hrs followed by 0.6 J/cm2 light irradiation for 10 mins and measured after 70 hrs by alamar blue assay; format: functional, cell-based; details: A498, light or radiation study
Caco-2 [29] = test: Antiproliferative activity against human Caco2 cells preincubated for 4 hrs followed by 0.6 J/cm2 light irradiation for 10 mins and measured after 70 hrs by alamar blue assay; format: functional, cell-based; details: Caco-2, light or radiation study
PC-3 [30] = test: Antiproliferative activity against human PC3 cells preincubated for 4 hrs followed by 0.6 J/cm2 light irradiation for 10 mins and measured after 70 hrs by alamar blue assay; format: functional, cell-based; details: PC-3, light or radiation study
A-431 [31] = test: Antiproliferative activity against human A431 cells preincubated for 4 hrs followed by 0.6 J/cm2 light irradiation for 10 mins and measured after 70 hrs by alamar blue assay; format: functional, cell-based; details: A-431, light or radiation study
[32] = Antiproliferative activity against human GERL3.0 cells preincubated for 4 hrs followed by 0.6 J/cm2 light irradiation for 10 mins and measured after 70 hrs by alamar blue assay; format: functional, cell-based; details: light or radiation study
MIA PaCa-2 [33] = test: Antiproliferative activity against human MIAPaCa2 cells preincubated for 4 hrs followed by 0.6 J/cm2 light irradiation for 10 mins and measured after 70 hrs by alamar blue assay; format: functional, cell-based; details: MIA PaCa-2, light or radiation study
[34] = Selectivity ratio of IC50 for antiproliferative activity against human MIAPaCa2 cells under dark condition to IC50 for antiproliferative activity against human MIAPaCa2 cells under 0.6 J/cm2 light irradiation; format: functional, MIA PaCa-2
[35] = Selectivity ratio of IC50 for antiproliferative activity against human MDA-MB-231 cells under dark condition to IC50 for antiproliferative activity against human MDA-MB-231 cells under 0.6 J/cm2 light irradiation; format: functional
[36] = Selectivity ratio of IC50 for antiproliferative activity against human MOLT4 cells under dark condition to IC50 for antiproliferative activity against human MOLT4 cells under 0.6 J/cm2 light irradiation; format: functional, MOLT-4
[37] = Selectivity ratio of IC50 for antiproliferative activity against human A549 cells under dark condition to IC50 for antiproliferative activity against human A549 cells under 0.6 J/cm2 light irradiation; format: functional
[38] = Selectivity ratio of IC50 for antiproliferative activity against human Caco2 cells under dark condition to IC50 for antiproliferative activity against human Caco2 cells under 0.6 J/cm2 light irradiation; format: functional, Caco-2
[39] = Selectivity ratio of IC50 for antiproliferative activity against human PC3 cells under dark condition to IC50 for antiproliferative activity against human PC3 cells under 0.6 J/cm2 light irradiation; format: functional, PC-3
[40] = Selectivity ratio of IC50 for antiproliferative activity against human A431 cells under dark condition to IC50 for antiproliferative activity against human A431 cells under 0.6 J/cm2 light irradiation; format: functional, A-431
[41] = Selectivity ratio of IC50 for antiproliferative activity against human GERL3.0 cells under dark condition to IC50 for antiproliferative activity against human GERL3.0 cells under 0.6 J/cm2 light irradiation; format: functional
[42] = Selectivity ratio of IC50 for antiproliferative activity against human A498 cells under dark condition to IC50 for antiproliferative activity against human A498 cells under 0.6 J/cm2 light irradiation; format: functional

SMILES: COc1ccc(NS(=O)(=O)c2c(F)c(F)c(F)c(F)c2F)cc1F [BATABULIN]
IC50 (BEAS-2B [1]): 12200 nM
IC50 (BEAS-2B [2]): > 40000 nM
selectivity ratio [3]: > 3.2
IC50 (HBL-100 [4]): 200 nM
IC50 (HBL-100 [5]): > 40000 nM
selectivity ratio [6]: > 190
IC50 (HUVEC [7]): 6300 nM
IC50 (HUVEC [8]): 16400 nM
IC50 (MIA PaCa-2 [9]): 47300 nM
Ratio IC50 [10]: 35.8
Activity (A498 [11]): Active

SMILES: COc1cccc2c1C(=O)c1c(O)c3c(c(O)c1C2=O)C[C@@](O)(C(=O)CO)C[C@@H]3O[C@H]1C[C@H](N)[C@H](O)[C@H](C)O1 [DOXORUBICIN]
IC50 (BEAS-2B [1]): 2400 nM
IC50 (BEAS-2B [2]): 18600 nM
IC50 (HBL-100 [4]): 80 nM
IC50 (HBL-100 [5]): 8500 nM
IC50 (HUVEC [7]): 150 nM
IC50 (HUVEC [8]): 480 nM
IC50 (MIA PaCa-2 [9]): 3100 nM

SMILES: [O-][S+](CC#Cc1c(C#CCO)sc2ccccc12)c1c(F)c(F)c(F)c(F)c1F (stereo not drawn)
IC50 (MIA PaCa-2 [12]): 2200 nM

SMILES: [O-][S+](CC#Cc1ccccc1C#CCO)c1ccccc1 (stereo not drawn)
IC50 (MIA PaCa-2 [12]): 15900 nM
IC50 (BEAS-2B [1]): 29500 nM
IC50 (BEAS-2B [2]): 81900 nM
selectivity ratio [3]: 2.8
IC50 (HBL-100 [4]): 19000 nM
IC50 (HBL-100 [5]): 35400 nM
selectivity ratio [6]: 1.8
IC50 (HUVEC [7]): 79800 nM
IC50 (HUVEC [8]): 66200 nM
IC50 (MIA PaCa-2 [9]): 124000 nM
Ratio IC50 [10]: 7.8
Activity (A498 [11]): inactive
Activity (A549 [23]): inactive
Activity (Homo sapiens): inactive

SMILES: [O-][S+](CC#Cc1ccccc1C#CCO)c1c(F)c(F)c(F)c(F)c1F (stereo not drawn)
IC50 (MIA PaCa-2 [12]): 2600 nM
Activity [22]: inactive
Activity (A549 [23]): Active
Activity (Homo sapiens): Active

Further lines, with some results ahead:

IC50 (MIA PaCa-2 [12]): 800 nM
SMILES: COCCOCOCC#Cc1ncccc1C#CC[S+]([O-])c1c(F)c(F)c(F)c(F)c1F (stereo not drawn)

IC50 (MIA PaCa-2 [12]): 800 nM
IC50 (MDA-MB-231 [14]): 1200 nM
IC50 (K562): 700 nM
IC50 (MOLT-4 [15]): 600 nM
IC50 (A549 [16]): 1600 nM
IC50 (Caco-2 [18]): 1000 nM
IC50 (PC-3 [19]): 1400 nM
IC50 (A-431 [20]): 1500 nM
Activity [22]: inactive
Activity [24]: Active
IC50 (MDA-MB-231 [25]): 500 nM
IC50 (MOLT-4 [26]): 400 nM
IC50 (A549 [27]): 800 nM
IC50 (Caco-2 [29]): 500 nM
IC50 (PC-3 [30]): 500 nM
IC50 (A-431 [31]): 1100 nM
IC50 (MIA PaCa-2 [33]): 200 nM
SMILES: [O-][S+](CC#Cc1cccnc1C#CCO)c1c(F)c(F)c(F)c(F)c1F (stereo not drawn)
Ratio IC50 (MIA PaCa-2 [13]): 6
IC50 (A498 [17]): 3400 nM
IC50 [21]: 900 nM
IC50 (BEAS-2B [1]): 1000 nM
IC50 (BEAS-2B [2]): 19600 nM
selectivity ratio [3]: 18.6
IC50 (HBL-100 [4]): 1400 nM
IC50 (HBL-100 [5]): 27100 nM
selectivity ratio [6]: 19.3
IC50 (HUVEC [7]): 600 nM
IC50 (HUVEC [8]): 8800 nM
IC50 (MIA PaCa-2 [9]): 20500 nM
Ratio IC50 [10]: 25.3
Activity (A498 [11]): Active
Activity (A549 [23]): Active
Activity (Homo sapiens): Active
IC50 (A498 [28]): 3200 nM
IC50 [32]: 600 nM
Ratio IC50 [34]: 3.7
Ratio IC50 [35]: 2.2
Ratio IC50 [36]: 1.6
Ratio IC50 [37]: 2
Ratio IC50 [38]: 2
Ratio IC50 [39]: 2.5
Ratio IC50 [40]: 1.3
Ratio IC50 [41]: 1.4
Ratio IC50 [42]: 1.1

IC50 (MIA PaCa-2 [12]): 120 nM
SMILES: Nc1ccn([C@@H]2O[C@H](CO)[C@@H](O)C2(F)F)c(=O)n1 [GEMCITABINE]
